Test results reported in patent publication US20120065228A1, “COMPOSITIONS AND METHODS FOR TREATING, CONTROLLING, REDUCING, OR AMELIORATING OCULAR INFLAMMATORY WITH LOWER RISK OF INCREASED INTRAOCULAR PRESSURE” (priority 2007, published 2012).
Where “and” joins values, the source holds several entries; their conditions need not be identical. Equal values may be shown once. Read-outs that look alike come from different tables or passages of the source.

Columns and labels:
Format in all cases: in vivo
[1] = system: New Zealand White rabbits
Description: On Days 1-31, animals received daily topical doses of the appropriate test article into the right eye. Animals were dosed four times per day, with doses administered 2 hours apart. Doses were administered using a calibrated 50-μL pipette. The eyelids were held close for 10 seconds immediately following dosing. The time of each dose administration was recorded.
Animals determined to be moribund were euthanized with an intravenous injection of commercial euthanasia solution.

[2] = system: protein concentration in the aqueous humor; test: Protein measurement in aqueous humor, rabbit paracentesis model; details: for Protein in aqueous humor, Mean / Protein in aqueous humor: second paracentesis; for Protein in aqueous humor: individual eyes
Description: (§1) Each rabbit was placed in a restraint device and tagged with the alphanumeric code. The formulations were instilled (50 μl) into the conjunctival sac of both eyes 180, 120, 90 and 30 min before the first paracentesis; then 15, 30, 90 min after the first paracentesis. To perform the first paracentesis the animals were anaesthetized by intravenous injection of 5 mg/kg Zoletil® (Virbac; 2.5 mg/kg tiletamine HCl and 2.5 mg/kg zolazepam HCl) and one drop of local anesthetic (Novesina®, Novartis) was administered to the eye. Anterior chamber paracentesis was performed with a 26 G needle attached to a tuberculin syringe; the needle was introduced into the anterior chamber through the cornea, taking care not to damage the tissues. Two hours after the ® first paracentesis, the animals were sacrificed with 0.4 ml Tanax® (Intervet International B.V.) and the second paracentesis was performed. About 100 μl of aqueous humor were removed at the second paracentesis. Aqueous humor was immediately split in four aliquots and stored at −80° C. until analysis. Then both eyes were enucleated and the iris-ciliary body was carefully excised, placed in polypropylene tubes, and stored at −80° C. until analysis.
For protein concentration determination in the aqueous humor we used the Protein Quantification Kit (Fluka; Cat. No. 77371; Lot. No. 1303129). Five microliters of aqueous humor were diluted to 100 μl with water. Twenty microliters of samples and of standards were load into a 96-well plate and recorded in a plate layout. Samples were treated following the assay procedure described in the kit. A microplate reader (GDV, Italy; model DV 990 B/V6) set at 670 nm was used for making the calibration and analyzing the samples.
(§2) Pupillary diameter, PGE2, protein, PMN, and MPO were expressed as mean±SEM. Statistical analysis was performed using one way ANOVA followed by a Newman-Keuls post hoc test. Clinical score was expressed as % of eyes and the statistical analysis was performed using Kruskal-Wallis followed by a Dunn post hoc test. P<0.05 was considered statistically significant in both cases. Prism 4 software (GraphPad Software, Inc.) was used for the analysis and graphs.

[3] = system: rabbit eye; test: Clinical evaluation by slit lamp (clinical score), rabbit paracentesis model; parameters: key to Clinical Score −180 min / Clinical Score −5 min / Clinical Score +115 min: 0: normal; 1: discrete dilatation of iris and conjunctival vessels; 2: moderate dilatation of iris and conjunctival vessels; 3: intense iridal hyperemia with flare in the anterior chamber; 4: intense iridal hyperemia with flare in the anterior chamber and presence of fibrinous exudates; details: for Clinical Score −5 min: 5 min before the first paracentesis; for Clinical Score −5 min / Clinical Score +115 min / Clinical Score −180 min: individual eyes; for Clinical Score +115 min: 5 min before the second paracentesis; for Clinical Score −180 min: basal
[4] = system: leukocytes (PMN); test: Leukocytes (PMN) measurement in aqueous humor, rabbit paracentesis model; details: second paracentesis; for PMN in aqueous humor: individual eyes
Description: as §1
For the determination of the number of leukocytes we used a haemocytometer (Improved Neubauer Chamber; Bright-line. Hausser Scientific) and a Polyvar 2 microscope (Reichert-Jung).
as §2

[5] = system: rabbit eye; test: Pupillary diameter measurement, rabbit paracentesis model; details: individual eyes; for Pupillary diameter T2: −5 min: 5 min before the first paracentesis; for Pupillary diameter T3: +115 min: 5 min before the second paracentesis; for Pupillary diameter Δ(T3 − T1): +115 min minus −180 min; for Pupillary diameter T1: −180 min: basal
Description: as §1
The pupillary diameter of both eyes was measured with a Castroviejo caliper 180 min and 5 min before the first paracentesis and 5 min before the second paracentesis.
as §2

[6] = system: Myeloperoxidase (MPO); test: Myeloperoxidase (MPO) activity in iris-ciliary body, rabbit paracentesis model; details: for MPO Unit/g: iris-ciliary body samples collected after the second paracentesis, individual eyes (DX/SX); for MPO activity in iris-ciliary body, Mean: after the second paracentesis
Description: as §1
The activity of MPO was measured as previously described by Williams et al. The iris-ciliary bodies were carefully dried, weighed and immersed in 1 ml of hexa-decyl-trimethyl-ammonium bromide solution. Then, the samples were sonicated for 10 sec on ice by a ultrasound homogenizer (HD 2070, Bandelin electronic), freeze-thawed three times, sonicated for 10 sec and centrifuged at 14,000 g for 10 min to remove cellular debris. An aliquot of the supernatant (40-200 μl) was diluted to 3 ml with the o-dianisidine 2HCl/H2O2 solution. The change in absorbance at 460 nm was continuously monitored for 5 min by a spectrophotometer (UV/Vis Spectrometer Lambda EZ 201; Perkin Elmer). The slope of the line (Δ/min) was determined for each sample and used to calculate the number of units of MPO in the tissue as follows:
were ε=11.3 mM^−1. Values were expressed as units of MPO/g of tissue.
as §2

[7] = system: PGE2 in the aqueous humor; test: Prostaglandin E2 (PGE2) measurement in aqueous humor, rabbit paracentesis model; details: for PGE2 in aqueous humor, statistical significance versus CTR: p<0.05; for PGE2 in aqueous humor, Mean / PGE2 in aqueous humor: second paracentesis; for PGE2 in aqueous humor: individual eyes
Description: as §1
For the quantitative determination of PGE2 in the aqueous humor we used the PGE2 Immunoassay kit (R&D Systems; Cat. No. KGE004; Lot. No. 240010). Eleven microliters or 16 μl of aqueous humor were diluted to 110 μl or 160 μl with the calibrator diluent solution provided with the kit. One hundred microliters of samples and of standards were load into a 96-well plate and recorded in a plate layout. Samples were treated following the assay procedure described in the kit. A microplate reader (GDV, Italy; model DV 990 B/V6) set at 450 nm (wavelength correction at 540 nm) was used for making the calibration and analyzing the samples.
as §2

[8] = 5 mg/g BOL-303242-X ([…]) topical 4 x daily, individual rabbits, Group C
[9] = 1 mg/g BOL-303242-X (0.05 mg/dose) topical 4 x daily, individual rabbit, Group D
[10] = 0.5% topical formulation, +115 min, 8 eyes

SMILES: Cc1ccc2c(NC[C@](O)(CC(C)(C)c3cc(F)cc4c3OCC4)C(F)(F)F)cccc2n1 [BOL-30324 2-X]
- Day of Death (day euthanized or found dead) [1, 8]: 17
- Recorded Notes (mortality) [1, 8]: Euthanized due to severe diarrhea.

SMILES: Cc1ccc2c(NC[C@](O)(CC(C)(C)c3cc(F)cc4c3OCC4)C(F)(F)F)cccc2n1 [BOL-303242 X]
- Day of Death (day euthanized or found dead) [1, 9]: 29
- Recorded Notes (mortality) [1, 9]: Found dead.

SMILES: CC(C(=O)O)c1ccc(-c2ccccc2)c(F)c1 (stereo not drawn) [F, flurbiprofen, reference compound]
- Protein in aqueous humor, statistical significance vs CTR ([2]; 0.03% topical formulation, p<0.001): statistical significance
- Protein in aqueous humor, Mean ([2]; 0.03% topical formulation): 20.910 mg/mL
- Protein in aqueous humor ([2]; 0.03% topical formulation): 20.78 mg/mL and 28.80 mg/mL and 23.41 mg/mL and 20.21 mg/mL and 17.53 mg/mL and 15.12 mg/mL and 20.52 mg/mL
- Clinical Score −5 min ([3]; 0.03% topical formulation): 0
- Clinical Score +115 min ([3]; 0.03% topical formulation): 2
- Clinical score as percentage of eyes, Score (%) 2 ([3]; 0.03% topical formulation, +115 min, 8 eyes): 100%
- Clinical Score −180 min ([3]; 0.03% topical formulation): 0
- Clinical score as percentage of eyes, Score (%) 0 ([3]; 0.03% topical formulation, −5 min, 8 eyes): 100%
- Clinical score as percentage of eyes, Score (%) 0 ([3]; 0.03% topical formulation, −180 min (basal), 8 eyes): 100%
- PMN in aqueous humor, Mean ([4]; 0.03% topical formulation): 30.000 number/μl
- PMN in aqueous humor ([4]; 0.03% topical formulation): 50 number/μl and 40 number/μl (2×) and 20 number/μl (2×) and 10 number/μl and 30 number/μl
- Pupillary diameter T2: −5 min ([5]; 0.03% topical formulation): 6.0 mm (3×) and 6.5 mm (3×) and 7.0 mm and 5.5 mm
- Pupillary diameter T3: +115 min ([5]; 0.03% topical formulation): 4.0 mm and 3.5 mm and 5.5 mm (2×) and 5.0 mm (2×) and 4.5 mm and 6.0 mm
- Pupillary diameter Δ(T3 − T1) ([5]; 0.03% topical formulation): −1.0 mm (3×) and −1.5 mm (3×) and 0.0 mm (2×)
- Pupillary diameter T1: −180 min ([5]; 0.03% topical formulation): 5.0 mm (2×) and 7.0 mm and 6.0 mm (4×) and 5.5 mm
- MPO Unit/g ([6]; 0.03% F): 1.10 Unit/g and 1.70 Unit/g and 0.34 Unit/g and 0.75 Unit/g and 0.74 Unit/g and 0.63 Unit/g and 0.73 Unit/g and 1.27 Unit/g
- MPO activity in iris-ciliary body, Mean ([6]; 0.03% topical formulation): 0.906 MPO Unit/g
- PGE2 in aqueous humor, statistical significance versus CTR ([7]; 0.03% topical formulation): statistically significant versus CTR
- PGE2 in aqueous humor, Mean ([7]; 0.03% topical formulation): 1.189 ng/mL
- PGE2 in aqueous humor ([7]; 0.03% topical formulation): 1.04 ng/ml and 0.75 ng/ml and 0.85 ng/ml and 1.11 ng/ml and 2.11 ng/ml (2×) and 0.93 ng/ml and 0.61 ng/ml

SMILES: CCOC(=O)O[C@]1(C(=O)OCCl)CC[C@H]2[C@@H]3CCC4=CC(=O)C=C[C@]4(C)[C@H]3[C@@H](O)C[C@@]21C [LE, loteprednol etabonate, reference compound]
- Protein in aqueous humor, Mean ([2]; 0.5% topical formulation): 33.905 mg/mL
- Protein in aqueous humor ([2]; 0.5% topical formulation): 36.14 mg/mL and 39.10 mg/mL and 34.69 mg/mL and 26.10 mg/mL and 26.30 mg/mL and 28.16 mg/mL and 40.90 mg/mL and 39.85 mg/mL
- Clinical Score −5 min ([3]; 0.5% topical formulation): 0
- Clinical Score +115 min ([3]; 0.5% topical formulation): 2 (2×) and 1 (6×)
- Clinical score as percentage of eyes, Score (%) 1 [3, 10]: 75%
- Clinical score as percentage of eyes, Score (%) 2 [3, 10]: 25%
- Clinical Score −180 min ([3]; 0.5% topical formulation): 0
- Clinical score, difference versus CTR ([3]; 0.5% topical formulation, p<0.05): significant difference versus CTR
- Clinical score as percentage of eyes, Score (%) 0 ([3]; 0.5% topical formulation, −5 min, 8 eyes): 100%
- Clinical score as percentage of eyes, Score (%) 0 ([3]; 0.5% topical formulation, −180 min (basal), 8 eyes): 100%
- PMN in aqueous humor, Mean ([4]; 0.5% topical formulation): 28.333 number/μl
- PMN in aqueous humor ([4]; 0.5% topical formulation): 40 number/μl (2×) and 20 number/μl (3×) and 30 number/μl
- Pupillary diameter T2: −5 min ([5]; 0.5% topical formulation): 6.0 mm (3×) and 6.5 mm (5×)
- Pupillary diameter T3: +115 min ([5]; 0.5% topical formulation): 4.5 mm and 5.0 mm (2×) and 5.5 mm (2×) and 6.0 mm (3×)
- Pupillary diameter Δ(T3 − T1) ([5]; 0.5% topical formulation): −1.5 mm (2×) and −1.0 mm (3×) and 0.0 mm and −0.5 mm (2×)
- Pupillary diameter T1: −180 min ([5]; 0.5% topical formulation): 6.0 mm (3×) and 6.5 mm (5×)
- MPO Unit/g ([6]; 0.5% LE): 0.30 Unit/g and 0.51 Unit/g and 0.81 Unit/g and 0.60 Unit/g and 0.73 Unit/g and 1.01 Unit/g
- MPO activity in iris-ciliary body, Mean ([6]; 0.5% topical formulation): 0.661 MPO Unit/g
- PGE2 in aqueous humor, statistical significance versus CTR ([7]; 0.5% topical formulation): statistically significant versus CTR
- PGE2 in aqueous humor, Mean ([7]; 0.5% topical formulation): 0.672 ng/mL
- PGE2 in aqueous humor ([7]; 0.5% topical formulation): ^2N/D and 0.23 ng/ml and 0.68 ng/ml and 1.10 ng/ml
